From patent publication US10562842B2, “Use of polyaminoisoprenyl derivatives in antibiotic or antiseptic treatment” (UNIVERSITE D'AIX-MARSEILLE, priority 2011, dated 2020)

What was measured:
[1] = test system: Enterobacter aerogenes MDR Ea289; assay: MIC of antibiotics ± test compound (MIC ratio), micro-broth dilution; format: cell-based; details: Set 2; for MIC ratio (*) on Ea289 Chl: chloramphenicol, compound at MIC/4
Description: The process consists of treating the MDR bacteria with the compounds of the invention in the presence of antibiotics.
(§1) Susceptibilities to antibiotics and compounds were determined in microplates by broth dilution method, as previously described. Minimal Inhibitory Concentrations (MICs) were determined with an inoculum of 10^6 CFU in 200 μL of MH broth containing two-fold serial dilutions of each drug. […] All MIC determinations were repeated at least three times in independent experiments.
The MICs of chloramphenicol±test compounds (MIC/4) were determined by the micro-broth dilution method (9). All MIC determinations were repeated at least three times in independent experiments. The MIC ratio corresponds to the ratio of the MIC of an antibiotic alone to the MIC of the same antibiotic in the presence of the tested compound (at MIC/4).
The compounds listed in Table 2 were tested for their ability to decrease the chloramphenicol MIC of Ea289, an Enterobacter aerogenes MDR strain (1). Each compound was first tested at MIC/4. […] All MIC determinations were repeated at least three times in independent experiments.
(§2) For reminder, the MIC ratio corresponds to the ratio of the MIC of the assessed antibiotic alone to the MIC of the same antibiotic in the presence of the tested compound (at MIC/4).

[2] = test system: Salmonella Thyphimurium MDR BN10055; assay: as above; format: cell-based, Salmonella enterica serovar Typhimurium; details: Set 2; for MIC ratio (*) on BN10055 Chl: chloramphenicol; for MIC ratio (*) on BN10055 Chl / MIC ratio (*) on BN10055 Dox / MIC ratio (*) on BN10055 Nal: compound at MIC/4; for MIC ratio (*) on BN10055 Dox: doxycycline; for MIC ratio (*) on BN10055 Nal: nalidixic acid
Description: The Enterobacter aerogenes Ea289 strain is a Kans derivative of the MDR clinical isolate Ea27, the acrB mutant, EaEP294, was constructed from Ea289. Multidrug-resistant Salmonella enterica serovar Typhimurium DT104 strains (BN10055) was isolated from cattle in France, the isogenic acrB derivative mutant, BN10055ΔacrB, was constructed from BN10055. Strains were maintained at −80° C. in 25% (v/v) glycerol for cryoprotection. Bacteria were routinely grown in Mueller-Hinton (MH) broth at 37° C.
as §1
[…] All MIC determinations were repeated at least three times in independent experiments. The MIC ratio corresponds to the ratio of the MIC of an antibiotic alone to the MIC of the same antibiotic in the presence of the tested compound (at MIC/4).
as §2

[3] = test system: Enterobacter aerogenes MDR Ea289; assay: as above; format: cell-based; details: compound at MIC/4, Set 2; for MIC ratio (*) on Ea289 Dox: doxycycline; for MIC ratio (*) on Ea289 Nal: nalidixic acid
[4] = test system: strain IV2571223 - Escherichia coli pig (sensible); assay: MIC of antibiotics in the presence and absence of test compound, veterinary strains; format: cell-based; set-up: MIC for strain IV2571223, Doxycycline in the presence of test compound: unit not given beside the values; details: compound at the Concentration (μM) (2-50)
Description: (§3) For each strain and each antibiotic, the MICs were determined in the presence and in the absence of one test compound.

[5] = test system: strain IV2571418 - Escherichia coli pig (resistant); assay: as above; format: cell-based; set-up: MIC for strain IV2571418, Doxycycline in the presence of test compound: unit not given beside the values; details: compound at the Concentration (μM) (4-50)
Description: as §3

[6] = test system: strain IV2570060 - Escherichia coli cattle (sensible); assay: as above; format: cell-based; details: compound at the Concentration (μM) (4-50)
Description: as §3

[7] = test system: strain IV2570533 - Escherichia coli cattle (resistant); assay: as above; format: cell-based; details: compound at the Concentration (μM) (0.896-12.6)
Description: as §3

CC(C)=CCC/C(C)=C/CC/C(C)=C/CNCCCCCN [Compound 18]
MIC ratio (*) on Ea289 Chl [1]: 8-16
MIC ratio (*) on BN10055 Chl [2]: 4-8
MIC ratio (*) on BN10055 Dox [2]: 16
MIC ratio (*) on BN10055 Nal [2]: 16
MIC ratio (*) on Ea289 Dox [3]: 64
MIC ratio (*) on Ea289 Nal [3]: 8

CC(C)=CCC/C(C)=C/CC/C(C)=C/CNCCCNCCCCN [Compound 19]
MIC ratio (*) on Ea289 Chl [1]: 8-16
MIC ratio (*) on BN10055 Chl [2]: 8-16
MIC ratio (*) on BN10055 Dox [2]: 16
MIC ratio (*) on BN10055 Nal [2]: 64
MIC ratio (*) on Ea289 Dox [3]: 64
MIC ratio (*) on Ea289 Nal [3]: 16

CC(C)=CCC/C(C)=C/CC/C(C)=C/CNCCCNCCCN [Compound 20]
MIC ratio (*) on Ea289 Chl [1]: 8
MIC ratio (*) on BN10055 Chl [2]: 8
MIC ratio (*) on BN10055 Dox [2]: 32
MIC ratio (*) on BN10055 Nal [2]: 64
MIC ratio (*) on Ea289 Dox [3]: 32
MIC ratio (*) on Ea289 Nal [3]: 8

CCN(CC)CCNCCCNC/C=C(\C)CCC=C(C)C [Compound 21]
MIC ratio (*) on Ea289 Chl [1]: 8-16
MIC ratio (*) on BN10055 Chl [2]: 16
MIC ratio (*) on BN10055 Dox [2]: 32
MIC ratio (*) on BN10055 Nal [2]: 64
MIC ratio (*) on Ea289 Dox [3]: 32
MIC ratio (*) on Ea289 Nal [3]: 8

CC(C)=CCC/C(C)=C/CC/C(C)=C/CNCCCN1CCCC1 [Compound 22]
MIC ratio (*) on Ea289 Chl [1]: 8-16
MIC ratio (*) on BN10055 Chl [2]: 16
MIC ratio (*) on BN10055 Dox [2]: 32
MIC ratio (*) on BN10055 Nal [2]: 128
MIC ratio (*) on Ea289 Dox [3]: 32
MIC ratio (*) on Ea289 Nal [3]: 16

CC(C)=CCC/C(C)=C/CC/C(C)=C/CNCCCN1CCOCC1 [Compound 23]
MIC ratio (*) on Ea289 Chl [1]: 8
MIC ratio (*) on BN10055 Chl [2]: 8
MIC ratio (*) on BN10055 Dox [2]: 16
MIC ratio (*) on BN10055 Nal [2]: 32
MIC ratio (*) on Ea289 Dox [3]: 32
MIC ratio (*) on Ea289 Nal [3]: 8

CC(C)=CCC/C(C)=C/CC/C(C)=C/CNCCNCCNCCNCCNCCN [Compound 35, [2-(2-{2-[2-(2-Amino-ethylamino)-ethylamino]-ethylamino}-ethylamino)-ethyl]-(3,7,11-trimethyl-dodeca-2,6,10-trienyl)-amine]
MICs for doxycycline and nalidixic acid, Ea289 ([1]; doxycycline and nalidixic acid): > 8
MICs for doxycycline and nalidixic acid, BN100055 ([2]; doxycycline and nalidixic acid): > 8
MIC for strain IV2571223, Doxycycline in the presence of test compound [4]: 0.0625
MIC for strain IV2571223, Tylosine in the presence of test compound [4]: 32
MIC for strain IV2571418, Doxycycline in the presence of test compound [5]: 2
MIC for strain IV2571418, Tylosine in the presence of test compound [5]: 8
MIC for strain IV2570060, Doxycycline in the presence of test compound [6]: 0.0625
MIC for strain IV2570060, Tylosine in the presence of test compound [6]: 8
MIC for strain IV2570533, Doxycycline in the presence of test compound [7]: 1
MIC for strain IV2570533, Tylosine in the presence of test compound [7]: 4
